The text below walks through data of ChEMBL document CHEMBL1201862, “PubChem BioAssay data set” (2004).

Among the test systems are 786-0; ACHN; CAKI-1; HL-60; IGROV-1; MDA-MB-231; Malme-3M; NCI-H226; NCI-H522; NCI/ADR-RES; OVCAR-3; OVCAR-4; OVCAR-8; PC-3; T47D; UACC-62; NCI-H23; SK-MEL-5; SR; UACC-257.
Assay in all cases: NCI anticancer screen, dose series, 48 h

Structures are written as SMILES.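 Assay format: 96-well plates, 48-hour exposure. GI50 marks 50% less growth.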 The source made the active and inactive calls. Cut-off read from the data, not from the text of the source: active = GI50 up to about 1.1 µM and inactive = higher. Some results are limits rather than exact numbers.

In the case of `O=S1(=O)c2ccccc2Oc2ccc(C(/C=N/O)=N/O)cc21`, the GI50 is 46.1 µM (inactive) in the experiment with 786-0; 38.6 µM (inactive) in the experiment on ACHN; 16.5 µM (inactive) with CAKI-1; 17.3 µM (inactive) in the experiment with HL-60; 29.2 µM (inactive) with IGROV-1; 45.5 µM (inactive) in the experiment on MDA-MB-231. For the same compound, the GI50 in the experiment with Malme-3M is 0.132 µM (active); in the experiment on NCI-H226, 57.4 µM (inactive); in the experiment on NCI-H522 it was 12.1 µM (inactive); with NCI/ADR-RES it was 17.4 µM (inactive); in the experiment with OVCAR-3, 12.3 µM (inactive); with OVCAR-4, 39.1 µM (inactive). Besides, the GI50 with OVCAR-8 was 18.4 µM (inactive); with PC-3, 32.5 µM (inactive); with T47D it was 9.08 µM (inactive); in the experiment with UACC-62 it was 71.3 µM (inactive).
Turning to `NCCN1C(=O)c2cc(Cl)c(Cl)cc2C1(O)c1ccc(Cl)cc1` (stereo not given), the GI50 is 1.61 µM (inactive) in the experiment with 786-0; 2.19 µM (inactive) in the experiment with ACHN; 2.54 µM (inactive) in the experiment on CAKI-1; 1.67 µM (inactive) in the experiment with HL-60; 2.07 µM (inactive) with IGROV-1; 2.01 µM (inactive) in the experiment with MDA-MB-231. Besides, the GI50 in the experiment on Malme-3M is 1.71 µM (inactive); in the experiment with NCI-H23 it was 2.69 µM (inactive); in the experiment with NCI/ADR-RES, 2.42 µM (inactive); in the experiment on OVCAR-3, 2.19 µM (inactive); in the experiment on OVCAR-4, 1.76 µM (inactive); in the experiment on OVCAR-8, 2.03 µM (inactive). Further, the GI50 was 4.98 µM (inactive) in the experiment on PC-3; 1.6 µM (inactive) in the experiment on SK-MEL-5; 2.02 µM (inactive) with SR; 2.11 µM (inactive) with T47D; 1.87 µM (inactive) in the experiment on UACC-257; 1.79 µM (inactive) in the experiment on UACC-62.
Take `Cc1cc(S(=O)(=O)Nc2nc3ccccc3[nH]2)c(S)cc1Cl`: the GI50 with 786-0 was 46.5 µM (inactive); with ACHN, 71.9 µM (inactive); in the experiment on CAKI-1, 45 µM (inactive); with HL-60, 35.5 µM (inactive); in the experiment with IGROV-1 it was 61.5 µM (inactive); with MDA-MB-231, 58.6 µM (inactive). Besides, the GI50 in the experiment with NCI-H23 is 67.9 µM (inactive); with NCI-H522, 97.3 µM (inactive); with NCI/ADR-RES it was > 100 µM (inactive); with OVCAR-3, 49.2 µM (inactive); with OVCAR-4, 61.4 µM (inactive); with OVCAR-8, > 100 µM (inactive). The GI50 was 46.6 µM (inactive) with PC-3; 35.2 µM (inactive) in the experiment with SK-MEL-5; 38.2 µM (inactive) in the experiment on SR; 41.4 µM (inactive) with T47D; > 100 µM (inactive) in the experiment on UACC-257; 79.4 µM (inactive) with UACC-62.
Consider `CN1C2CCC1CN(CCOC(c1ccc(F)cc1)c1ccc(F)cc1)C2`, for which the GI50 in the experiment with 786-0 was 19.6 µM (inactive); with ACHN, 40.6 µM (inactive); with CAKI-1, 45.8 µM (inactive); in the experiment with HL-60, 12.6 µM (inactive); in the experiment with IGROV-1, 36.1 µM (inactive); in the experiment with MDA-MB-231, 22.9 µM (inactive). The GI50 with Malme-3M is 17.9 µM (inactive); with NCI-H226 it was 32.3 µM (inactive); in the experiment with NCI-H23 it was 69.7 µM (inactive); with NCI-H522, 43.6 µM (inactive); with NCI/ADR-RES it was 35.4 µM (inactive); in the experiment on OVCAR-3, 47.1 µM (inactive). In addition, the GI50 in the experiment on OVCAR-4 was 43.8 µM (inactive); with OVCAR-8, 32.4 µM (inactive); in the experiment with PC-3 it was 28.6 µM (inactive); in the experiment with SK-MEL-5, 14.4 µM (inactive); in the experiment on T47D, 24.3 µM (inactive); in the experiment with UACC-257 it was 19.1 µM (inactive).
In the case of `CC(C)[C@H]1NC(=O)[C@H]2N=C(O[C@@H]2C)[C@@H]2CCCN2C(=O)[C@H](Cc2ccccc2)NC(=O)[C@@H]2COC(=N2)[C@@H](Cc2ccccc2)NC(=O)[C@@H]2COC1=N2`, the GI50 with 786-0, with ACHN, in the experiment with CAKI-1, in the experiment on HL-60, in the experiment with IGROV-1 and in the experiment with MDA-MB-231 was > 100 µM (inactive) each time. Also, the GI50 in the experiment on Malme-3M, with NCI-H226, in the experiment on NCI-H23, in the experiment with NCI-H522, in the experiment with NCI/ADR-RES and with OVCAR-3 was > 100 µM (inactive) each time. The GI50 in the experiment on OVCAR-4, with OVCAR-8, in the experiment on PC-3, with SK-MEL-5, with T47D and in the experiment on UACC-257 was > 100 µM (inactive) in each case. In addition, the GI50 in the experiment with UACC-62 was > 100 µM (inactive).
As to `C1=C(c2ccccc2)SC=C(c2ccccc2)S1`, the GI50 in the experiment on 786-0 was > 100 µM (inactive); in the experiment with ACHN, 60.5 µM (inactive); in the experiment on CAKI-1, 60.4 µM (inactive); in the experiment with HL-60 it was 65.9 µM (inactive); in the experiment on IGROV-1, 19.9 µM (inactive); with MDA-MB-231, 32.2 µM (inactive). Moreover, the GI50 was 45.5 µM (inactive) in the experiment with Malme-3M; 29 µM (inactive) with NCI-H226; 72.8 µM (inactive) in the experiment on NCI-H23; 19.9 µM (inactive) in the experiment on NCI/ADR-RES; 33.7 µM (inactive) in the experiment on OVCAR-3; 32.4 µM (inactive) in the experiment on OVCAR-4. Besides, the GI50 is 44.8 µM (inactive) with OVCAR-8; > 100 µM (inactive) in the experiment with PC-3; 19.6 µM (inactive) with SK-MEL-5; 53.3 µM (inactive) with T47D; 57.7 µM (inactive) in the experiment on UACC-257; 35.9 µM (inactive) in the experiment on UACC-62.
In the case of `CCOC(=O)COc1ccc(/C=C/C(=O)c2ccc(OC)cc2)cc1`, the GI50 with 786-0 was 20.8 µM (inactive); with ACHN, 33 µM (inactive); in the experiment with CAKI-1, > 10 µM (inactive); in the experiment on HL-60, 27 µM (inactive); with IGROV-1, 45.2 µM (inactive); in the experiment with MDA-MB-231 it was 37.6 µM (inactive). The GI50 in the experiment with Malme-3M was 28.2 µM (inactive); in the experiment with NCI-H23 it was 25.8 µM (inactive); with NCI-H522, 22.3 µM (inactive); with NCI/ADR-RES it was 44.7 µM (inactive); in the experiment on OVCAR-3 it was 30 µM (inactive); with OVCAR-8 it was 24.5 µM (inactive). In addition, the GI50 with PC-3 is 22.9 µM (inactive); in the experiment with SK-MEL-5 it was > 10 µM (inactive); with SR, 23.2 µM (inactive); in the experiment with T47D it was 39.7 µM (inactive); with UACC-257, 23.1 µM (inactive); in the experiment with UACC-62, 22.5 µM (inactive).
`COC(=O)C1CCC(=S)N1C(=O)OCc1ccccc1` (stereo not given): the GI50 in the experiment on 786-0, with ACHN, in the experiment on CAKI-1, with IGROV-1, in the experiment with MDA-MB-231 and with Malme-3M was > 100 µM (inactive) each time. Further, the GI50 was > 100 µM (inactive) in the experiment on NCI-H23; 86.7 µM (inactive) with NCI-H522; > 100 µM (inactive) in the experiment with NCI/ADR-RES; 78.3 µM (inactive) with OVCAR-3; > 100 µM (inactive) with OVCAR-4; > 100 µM (inactive) in the experiment on OVCAR-8. In addition, the GI50 with PC-3 was > 100 µM (inactive); in the experiment on SK-MEL-5, > 100 µM (inactive); in the experiment on SR it was > 100 µM (inactive); in the experiment with T47D, > 100 µM (inactive); in the experiment on UACC-257, 66.4 µM (inactive); with UACC-62, > 100 µM (inactive).
Turning to `Cc1ccc(/C=N/Nc2cnccn2)s1`, the GI50 in the experiment with 786-0 was > 100 µM (inactive); in the experiment with ACHN, > 100 µM (inactive); with CAKI-1, > 100 µM (inactive); in the experiment on HL-60, > 100 µM (inactive); in the experiment on IGROV-1 it was > 100 µM (inactive); in the experiment with MDA-MB-231, 96.2 µM (inactive). In addition, the GI50 with Malme-3M is > 100 µM (inactive); in the experiment on NCI-H226, 38.7 µM (inactive); in the experiment with NCI-H23, > 100 µM (inactive); in the experiment on NCI-H522 it was 83 µM (inactive); in the experiment on NCI/ADR-RES, > 100 µM (inactive); in the experiment on OVCAR-3 it was > 100 µM (inactive). Also, the GI50 with OVCAR-4, in the experiment with OVCAR-8, in the experiment with PC-3, with SK-MEL-5, in the experiment with T47D and in the experiment with UACC-257 was > 100 µM (inactive) each time. In the experiment with UACC-62, the GI50 was > 100 µM (inactive).
For the compound `O=C(O)c1cncc(C(=O)O)c1`, the GI50 in the experiment on 786-0, with ACHN, with CAKI-1, in the experiment with HL-60, in the experiment with IGROV-1 and in the experiment with MDA-MB-231 was > 100 µM (inactive) throughout. In addition, the GI50 with Malme-3M, with NCI-H226, in the experiment on NCI-H23, with NCI-H522, with NCI/ADR-RES and in the experiment on OVCAR-3 was > 100 µM (inactive) each time. The GI50 in the experiment with OVCAR-4, in the experiment on OVCAR-8, in the experiment with PC-3, with SK-MEL-5, with T47D and with UACC-257 was > 100 µM (inactive) each time. Further, the GI50 with UACC-62 was > 100 µM (inactive).
For the compound `Clc1nc2n(c1/C=C/c1cccs1)CCS2`, the GI50 is 20 µM (inactive) in the experiment on 786-0; 37.5 µM (inactive) in the experiment on ACHN; 18.8 µM (inactive) in the experiment with CAKI-1; 6 µM (inactive) in the experiment with HL-60; 32 µM (inactive) in the experiment with IGROV-1; 6.41 µM (inactive) in the experiment with MDA-MB-231. For the same compound, the GI50 in the experiment on Malme-3M is 90.8 µM (inactive); in the experiment with NCI-H226, 31.6 µM (inactive); in the experiment with NCI-H23, 29 µM (inactive); with NCI-H522, 35.1 µM (inactive); in the experiment with NCI/ADR-RES, 29.6 µM (inactive); in the experiment on OVCAR-3 it was 23.5 µM (inactive). Moreover, the GI50 with OVCAR-4 is 64 µM (inactive); in the experiment on OVCAR-8, 29.7 µM (inactive); in the experiment with PC-3, 40.8 µM (inactive); in the experiment with SK-MEL-5, 17.1 µM (inactive); in the experiment with T47D it was 17 µM (inactive); in the experiment on UACC-257, 57.5 µM (inactive). Moreover, the GI50 in the experiment with UACC-62 is 37.3 µM (inactive).
